# Reference: patent publication US20240199587A1, “HETEROCYCLIC COMPOUNDS” (Hoffmann-La Roche Inc., priority 2021, published 2024)
# Molecular target: T1, MAGL (Homo sapiens, UniProt Q99685)
# T1 sequence (Q99685 1-303): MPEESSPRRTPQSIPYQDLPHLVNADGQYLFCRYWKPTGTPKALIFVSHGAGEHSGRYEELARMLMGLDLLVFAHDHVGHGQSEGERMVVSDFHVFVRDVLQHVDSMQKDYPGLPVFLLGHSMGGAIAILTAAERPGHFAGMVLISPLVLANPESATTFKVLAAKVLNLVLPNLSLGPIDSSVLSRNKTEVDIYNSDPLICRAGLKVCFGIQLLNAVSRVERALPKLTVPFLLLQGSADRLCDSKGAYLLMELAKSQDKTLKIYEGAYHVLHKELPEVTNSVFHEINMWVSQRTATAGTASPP
# Assay: 2-AG assay (MAGL inhibitory activity, hydrolysis of 2-arachidonoylglycerol to arachidonic acid followed by mass spectrometry)
# Type: biochemical
# Details: 8 μM 2-arachidonoylglycerol, 15 min pre-incubation, 30 min incubation at RT, RapidFire MS readout
# Method in brief: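 Arachidonic acid released from 8 μM 2-arachidonoylglycerol was quantified by online SPE triple-quadrupole MS (negative ESI, 303.1→259.1), normalised to d8-arachidonic acid internal standard. Reaction ran 30 min at RT after 15 min RT compound pre-incubation with […] MAGL in TRIS/EDTA/Tween-20 buffer, 2.5% DMSO.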
row,SMILES,IC50 [nM]
1,"CS(=O)(=O)c1ccc(CC2CC3(C2)CN(C(=O)N2CC4(CC(c5ccc(C(F)(F)F)nc5)C4)C2)C3)cc1C(F)(F)F [Example 532, [6-[[4-methylsulfonyl-3-(trifluoromethyl)phenyl]methyl]-2-azaspiro[3.3]heptan-2-yl]-[6-[6-(trifluoromethyl)-3-pyridyl]-2-azaspiro[3.3]heptan-2-yl]methanone]",131
2,"O=C(N1CC2(CC(n3cnc(C4CC4)n3)C2)C1)N1CC2(C1)CN(S(=O)(=O)c1ccc(F)c(F)c1)C2 [Example 273, [6-(3-cyclopropyl-1,2,4-triazol-1-yl)-2-azaspiro[3.3]heptan-2-yl]-[2-(3,4-difluorophenyl)sulfonyl-2,6-diazaspiro[3.3]heptan-6-yl]methanone]",34.4
3,"O=C(N1CC2(CC(n3cnc(C4CC4)n3)C2)C1)N1CC2(C1)CN(S(=O)(=O)c1cc(F)cc(F)c1)C2 [Example 213, [6-(3-cyclopropyl-1,2,4-triazol-1-yl)-2-azaspiro[3.3]heptan-2-yl]-[2-(3,5-difluorophenyl)sulfonyl-2,6-diazaspiro[3.3]heptan-6-yl]methanone]",1.6
4,"O=C(N1CC2(CC(Cc3cnc(C(F)(F)F)cn3)C2)C1)N1CC2(CC(n3cnc(C4(O)CC4)n3)C2)C1 [Example 487, [6-[3-(1-hydroxycyclopropyl)-1,2,4-triazol-1-yl]-2-azaspiro[3.3]heptan-2-yl]-[6-[[5-(trifluoromethyl)pyrazin-2-yl]methyl]-2-azaspiro[3.3]heptan-2-yl]methanone]",3.93
5,"COc1ccc(S(=O)(=O)N2CC3(CN(C(=O)N4CC5(CC(n6cnc(C7CC7)n6)C5)C4)C3)C2)cc1 [Example 282, [6-(3-cyclopropyl-1,2,4-triazol-1-yl)-2-azaspiro[3.3]heptan-2-yl]-[2-(4-methoxyphenyl)sulfonyl-2,6-diazaspiro[3.3]heptan-6-yl]methanone]",44.6
6,"O=C(N1CC2(CC(n3cnc(C4CC4)n3)C2)C1)N1CC2(C1)CN(S(=O)(=O)c1cccc(OC(F)(F)F)c1)C2 [Example 233, [6-(3-cyclopropyl-1,2,4-triazol-1-yl)-2-azaspiro[3.3]heptan-2-yl]-[2-[3-(trifluoromethoxy)phenyl]sulfonyl-2,6-diazaspiro[3.3]heptan-6-yl]methanone]",5.3
7,"O=C(N1CC2(CC(n3cnc(C4(O)CC4)n3)C2)C1)N1CC2(CN(Cc3ccc(S(=O)(=O)C(F)(F)F)cc3)C2)C1 [Example 412, [6-[3-(1-hydroxycyclopropyl)-1,2,4-triazol-1-yl]-2-azaspiro[3.3]heptan-2-yl]-[6-[[4-(trifluoromethylsulfonyl)phenyl]methyl]-2,6-diazaspiro[3.3]heptan-2-yl]methanone]",7.96
8,"Cc1ccc(COC2CN(C(=O)N3CC4(CC(n5cnc(C6CC6)c5)C4)C3)C2)cc1C(F)(F)F [Example 106, [6-(4-cyclopropylimidazol-1-yl)-2-azaspiro[3.3]heptan-2-yl]-[3-[[4-methyl-3-(trifluoromethyl)phenyl]methoxy]azetidin-1-yl]methanone]",4.1
9,"O=C(N1CC(NCc2ccc(C(F)(F)F)cc2Cl)C1)N1CC2(CC(c3cncc(F)c3)C2)C1 [Example 514, [3-[[2-chloro-4-(trifluoromethyl)phenyl]methylamino]azetidin-1-yl]-[6-(5-fluoro-3-pyridyl)-2-azaspiro[3.3]heptan-2-yl]methanone]",88.6
10,"CS(=O)(=O)c1cc(F)ccc1CC1CC2(C1)CN(C(=O)N1CC3(CC(n4cnc(C5CC5)n4)C3)C1)C2 [Example 475, [6-(3-cyclopropyl-1,2,4-triazol-1-yl)-2-azaspiro[3.3]heptan-2-yl]-[6-[(4-fluoro-2-methylsulfonyl-phenyl)methyl]-2-azaspiro[3.3]heptan-2-yl]methanone]",0.44
11,"O=C(N1CC2(CC(n3cnc(C4CC4)n3)C2)C1)N1CC2(C1)CN(S(=O)(=O)N1CCCCC1)C2 [Example 237, [6-(3-cyclopropyl-1,2,4-triazol-1-yl)-2-azaspiro[3.3]heptan-2-yl]-[2-(1-piperidylsulfonyl)-2,6-diazaspiro[3.3]heptan-6-yl]methanone]",6.4
12,"CC(C)c1ccc(N(C)c2ccc(C3CN(C(=O)N4CC5(CC(c6ccc(C(F)(F)F)nc6)C5)C4)C3)cn2)cc1 [Example 534, [3-[6-(4-isopropyl-N-methyl-anilino)-3-pyridyl]azetidin-1-yl]-[6-[6-(trifluoromethyl)-3-pyridyl]-2-azaspiro[3.3]heptan-2-yl]methanone]",1760
13,"CC(C)(C)c1nc(-c2ccc(C(=O)N3CC4(CC(n5cnc(Cl)c5)C4)C3)cc2)no1 [Example 159, [4-(5-tert-butyl-1,2,4-oxadiazol-3-yl)phenyl]-[6-(4-chloroimidazol-1-yl)-2-azaspiro[3.3]heptan-2-yl]methanone]",315
14,"O=C(N1CC2(CC(c3ccc(C(F)(F)F)nc3)C2)C1)N1CC2(CN(Cc3ccc(S(=O)(=O)C(F)(F)F)cc3)C2)C1 [Example 526, [6-[6-(trifluoromethyl)-3-pyridyl]-2-azaspiro[3.3]heptan-2-yl]-[6-[[4-(trifluoromethylsulfonyl)phenyl]methyl]-2,6-diazaspiro[3.3]heptan-2-yl]methanone]",354

# The next lines start with the values.
row,IC50 [nM],SMILES
1,2.81,"O=C(N1CC(c2ccc(N3CC(C(F)(F)F)C3)nc2)C1)N1CC2(CC(n3cnc(C(F)(F)F)n3)C2)C1 [Example 422, [3-[6-[3-(trifluoromethyl)azetidin-1-yl]-3-pyridyl]azetidin-1-yl]-[6-[3-(trifluoromethyl)-1,2,4-triazol-1-yl]-2-azaspiro[3.3]heptan-2-yl]methanone]"
2,6,"O=C(N1CC(Oc2cncc(C3CC3)c2Cl)C1)N1CC2(CC(n3cnc(C4CC4)n3)C2)C1 [Example 235, [3-[(4-chloro-5-cyclopropyl-3-pyridyl)oxy]azetidin-1-yl]-[6-(3-cyclopropyl-1,2,4-triazol-1-yl)-2-azaspiro[3.3]heptan-2-yl]methanone]"
3,26.5,"Cc1nc(C(=O)N2CC3(CC(n4cnc(C5CC5)n4)C3)C2)cnc1OCC1(C(F)(F)F)CC1 [Example 27, [6-(3-cyclopropyl-1,2,4-triazol-1-yl)-2-azaspiro[3.3]heptan-2-yl]-[6-methyl-5-[[1-(trifluoromethyl)cyclo-propyl]methoxy]pyrazin-2-yl]methanone]"
4,102,"O=C(N1CC(n2cc(OCC(F)(F)F)cn2)C1)N1CC2(CC(n3cnc(C4CC4)n3)C2)C1 [Example 165, [6-(3-cyclopropyl-1,2,4-triazol-1-yl)-2-azaspiro[3.3]heptan-2-yl]-[3-[4-(2,2,2-trifluoroethoxy)pyrazol-1-yl]azetidin-1-yl]methanone]"
5,4.38,"O=C(N1CC(OCc2ccc(S(=O)(=O)C(F)(F)F)cc2)C1)N1CC2(CC(n3cnc(C4CC4)n3)C2)C1 [Example 499, [6-(3-cyclopropyl-1,2,4-triazol-1-yl)-2-azaspiro[3.3]heptan-2-yl]-[3-[[4-(trifluoromethylsulfonyl)phenyl]methoxy]azetidin-1-yl]methanone]"
6,651,"Cc1cccc(F)c1CCC1CN(C(=O)N2CC3(CC(n4cnc(C5CC5)n4)C3)C2)C1 [Example 508, [6-(3-cyclopropyl-1,2,4-triazol-1-yl)-2-azaspiro[3.3]heptan-2-yl]-[3-[2-(2-fluoro-6-methyl-phenyl)ethyl]azetidin-1-yl]methanone]"
7,6.2,"O=C(N1CC2(CC(n3cnc(C4CC4)n3)C2)C1)N1CC2(C1)CN(S(=O)(=O)c1ccc(F)c(C(F)(F)F)c1)C2 [Example 236, [6-(3-cyclopropyl-1,2,4-triazol-1-yl)-2-azaspiro[3.3]heptan-2-yl]-[2-[4-fluoro-3-(trifluoromethyl)phenyl]sulfonyl-2,6-diazaspiro[3.3]heptan-6-yl]methanone]"
8,0.4,"O=C(N1CC2(CC(n3cnc(C4CC4)n3)C2)C1)N1CC2(CN(Cc3ccc(F)cc3C(F)(F)F)C2)C1 [Example 196, [6-(3-cyclopropyl-1,2,4-triazol-1-yl)-2-azaspiro[3.3]heptan-2-yl]-[6-[[4-fluoro-2-(trifluoromethyl)phenyl]methyl]-2,6-diazaspiro[3.3]heptan-2-yl]methanone]"
9,0.05,"O=C(N1CC(C23CC(CNC4(C(F)(F)F)CC4)(C2)C3)C1)N1CC2(CC(n3cnc(C4CC4)n3)C2)C1 [Example 444, [6-(3-cyclopropyl-1,2,4-triazol-1-yl)-2-azaspiro[3.3]heptan-2-yl]-[3-[3-[[[1-(trifluoromethyl)cyclopropyl]amino]methyl]-1-bicyclo[1.1.1]pentanyl]azetidin-1-yl]methanone]"
10,0.1,"O=C(N1CC2(CC(Oc3ccc(OC(F)(F)F)cc3F)C2)C1)N1CC2(CC(n3cnc(C4CC4)n3)C2)C1 [Example 42, [6-(3-cyclopropyl-1,2,4-triazol-1-yl)-2-azaspiro[3.3]heptan-2-yl]−[6-[2-fluoro-4-(trifluoromethoxy)phenoxy]-2-azaspiro[3.3]heptan-2-yl]methanone]"
11,2.48,"O=C(N1CC(C23CC(c4nnc(C5(C(F)(F)F)CC5)[nH]4)(C2)C3)C1)N1CC2(CC(n3cnc(C4CC4)n3)C2)C1 [Example 419, [6-(3-cyclopropyl-1,2,4-triazol-1-yl)-2-azaspiro[3.3]heptan-2-yl]-[3-[3-[5-[1-(trifluoromethyl)cyclopropyl]-4H-1,2,4-triazol-3-yl]-1-bicyclo[1.1.1]pentanyl]azetidin-1-yl]methanone]"
